Data reported in the NIST ThermoML archive (doi:10.1021/je700321s).

Assay: xn = mol fraction of the nth substance listed
Conditions: Liquid, Vibrating tube method

CC(C)O [propan-2-ol] + O=C=O
Conditions | mass density [kg/m3]
308.11 K, 1814 kPa, x2 = 0.139 | 786.2
308.11 K, 2252 kPa, x2 = 0.139 | 786.8
308.11 K, 3003 kPa, x2 = 0.139 | 787.7
308.11 K, 3206 kPa, x2 = 0.139 | 787.9
308.11 K, 3427 kPa, x2 = 0.139 | 788.2
308.11 K, 3514 kPa, x2 = 0.2003 | 792.7
308.11 K, 3607 kPa, x2 = 0.139 | 788.4
308.11 K, 4006 kPa, x2 = 0.2003 | 793.4
308.11 K, 4089 kPa, x2 = 0.139 | 788.9
308.11 K, 4510 kPa, x2 = 0.2003 | 794
308.11 K, 5013 kPa, x2 = 0.139 | 789.9
308.11 K, 5028 kPa, x2 = 0.2003 | 794.7
308.11 K, 5503 kPa, x2 = 0.139 | 790.5
308.11 K, 5504 kPa, x2 = 0.2003 | 795.3
308.11 K, 6002 kPa, x2 = 0.6086 | 812.2
308.11 K, 6006 kPa, x2 = 0.2003 | 795.9
308.11 K, 6019 kPa, x2 = 0.139 | 791
308.11 K, 6221 kPa, x2 = 0.6086 | 813
308.11 K, 6400 kPa, x2 = 0.6086 | 813.7
308.11 K, 6517 kPa, x2 = 0.2003 | 796.5
308.11 K, 6518 kPa, x2 = 0.139 | 791.7
308.11 K, 6606 kPa, x2 = 0.6086 | 814.5
308.11 K, 6807 kPa, x2 = 0.6086 | 815.2
308.11 K, 6824 kPa, x2 = 0.7943 | 793.7
308.11 K, 7001 kPa, x2 = 0.7943 | 795.6
308.11 K, 7009 kPa, x2 = 0.139 | 792.2
308.11 K, 7019 kPa, x2 = 0.6086 | 815.9
308.11 K, 7029 kPa, x2 = 0.2003 | 797.2
308.11 K, 7203 kPa, x2 = 0.6086 | 816.7
308.11 K, 7206 kPa, x2 = 0.7943 | 797.4
308.11 K, 7400 kPa, x2 = 0.7943 | 799.2
308.11 K, 7401 kPa, x2 = 0.6086 | 817.4
308.11 K, 7512 kPa, x2 = 0.139 | 792.7
308.11 K, 7516 kPa, x2 = 0.2003 | 797.7
308.11 K, 7607 kPa, x2 = 0.6086 | 818.3
308.11 K, 7607 kPa, x2 = 0.7943 | 801.1
308.11 K, 7804 kPa, x2 = 0.6086 | 818.9
308.11 K, 7810 kPa, x2 = 0.7943 | 803
308.11 K, 8001 kPa, x2 = 0.2003 | 798.3
308.11 K, 8005 kPa, x2 = 0.6086 | 819.7
308.11 K, 8007 kPa, x2 = 0.7943 | 804.6
308.11 K, 8016 kPa, x2 = 0.139 | 793.3
308.11 K, 8197 kPa, x2 = 0.7943 | 806.2
308.11 K, 8209 kPa, x2 = 0.6086 | 820.4
308.11 K, 8414 kPa, x2 = 0.7943 | 807.8
308.11 K, 8511 kPa, x2 = 0.2003 | 798.9
308.11 K, 8530 kPa, x2 = 0.139 | 793.9
308.11 K, 8600 kPa, x2 = 0.6086 | 821.7
308.11 K, 8618 kPa, x2 = 0.7943 | 809.6
308.11 K, 8796 kPa, x2 = 0.7943 | 810.8
308.11 K, 8810 kPa, x2 = 0.6086 | 822.4
308.11 K, 8990 kPa, x2 = 0.139 | 794.3
308.11 K, 9000 kPa, x2 = 0.6086 | 823.1
308.11 K, 9017 kPa, x2 = 0.7943 | 812.5
308.11 K, 9019 kPa, x2 = 0.2003 | 799.5
308.11 K, 9101 kPa, x2 = 0.6086 | 823.3
308.11 K, 9200 kPa, x2 = 0.6086 | 823.8
308.11 K, 9203 kPa, x2 = 0.7943 | 813.9
308.11 K, 9400 kPa, x2 = 0.7943 | 815.3
308.11 K, 9498 kPa, x2 = 0.139 | 794.8
308.11 K, 9607 kPa, x2 = 0.7943 | 816.6
308.11 K, 9807 kPa, x2 = 0.7943 | 818
308.11 K, 9902 kPa, x2 = 0.7943 | 818.6
308.11 K, 10003 kPa, x2 = 0.2003 | 800.7
308.11 K, 10047 kPa, x2 = 0.2003 | 800.8
308.12 K, 4780 kPa, x2 = 0.4248 | 807.5
